Data from patent EP0326329B1, “Quinazoline derivatives useful as insecticides” (Dow AgroSciences LLC, priority 1988, dated 1989).

How the values were obtained:
Assay type in all cases: in vivo
[1] = tested on: Erysiphe graminis tritici (powdery mildew); assay: Greenhouse Test 1, foliar spray fungicide screen (POWD MDEW), host wheat; details: disease control rating, 400 ppm (+++ at 100 ppm)
[2] = tested on: Pyricularia oryzae (rice blast); details: disease control rating, foliar spray, host rice; 400 ppm (+++ at 100 ppm)
[3] = tested on: Puccinia recondita tritici (leaf rust); assay: Greenhouse Test 1, foliar spray fungicide screen (LEAF RUST), host wheat; details: disease control rating, 400 ppm (+++ at 100 ppm)
[4] = tested on: Botrytis cinerea (gray mold); assay: Greenhouse Test 1, foliar spray fungicide screen (GRAY MOLD), host grape berries; details: disease control rating, 400 ppm (+++ at 100 ppm)
[5] = tested on: Pseudoperonospora cubensis (downy mildew); assay: Greenhouse Test 1, foliar spray fungicide screen (DOWN MDEW), host squash; details: disease control rating, 400 ppm (+++ at 100 ppm)
[6] = tested on: Southern corn rootworm (Diabrotica undecimpuctata howardi Barber); assay: Mite/insect screen, soil treatment (CRW); details: percent mortality, soil treatment; for mortality at 12 ppm / mortality at 24 ppm: Diabrotica, read-out: CRW RESULTS %
Protocol: (§1) The compounds of Examples 1-203 were tested for miticidal and insecticidal activity in the following mite/insect screen.
(§2) Each test compound was formulated by dissolving the compound in acetone/alcohol (50:50) mixture containing 23 g of "TOXIMUL R" (sulfonate/nonionic emulsifier blend) and 13 g of "TOXIMUL S" (sulfonate/nonionic emulsifier blend) per liter. These mixtures were then diluted with water to give the indicated concentrations.
Activity on Southern corn rootworm (Diabrotica undecimpuctata howardi Barber) was evaluated by adding two ml of tap water, a presoaked corn seed, and 15 g of dry sandy soil to a one ounce plastic container. The soil was treated with 1 mL of test solution containing a pre-determined concentration of test compound. After six to 12 hours of drying, five 2-3 instar corn rootworm larvae were added to the individual cups, which were then capped and held at 23°C.
(§3) After standard exposure periods, percent mortality and phytotoxicity were evaluated. […]

[7] = tested on: southern armyworm (Spodopetra eridania Cramer); assay: Mite/insect screen, sprayed squash leaves (SAW); details: percent mortality; for mortality at 200 ppm / mortality at 400 ppm: Spodoptera eridania, read-out: SAW RESULTS %
Protocol: as §1, §2
(§4) Other plants in the same treatment pot were left uninfested. The leaves were then sprayed with 5 ml of test solution using a DeVilbiss atomizing sprayer at 10 psi. Both surfaces of the leaves were covered until runoff, and then allowed to dry for one hour. Two uninfested leaves were then excised and placed into a Petri dish containing larval southern armyworm (Spodopetra eridania Cramer).
as §3

[8] = tested on: Twospotted spider mites (Tetranychus urticae Koch); assay: Mite/insect screen, sprayed squash cotyledons (SM); details: percent mortality; for mortality at 200 ppm / mortality at 400 ppm: Tetranychus urticae, read-out: SM RESULTS %
Protocol: as §1, §2, §4, §3

[9] = tested on: melon aphids (Aphis gossypii Glover); assay: Mite/insect screen, sprayed squash cotyledons (MA); details: percent mortality; for mortality at 200 ppm / mortality at 400 ppm: Aphis gossypii, read-out: MA RESULTS %
Protocol: as §1, §2, §4, §3

SMILES | POWD MDEW [1] | RICE BLAST [2] | LEAF RUST [3] | GRAY MOLD [4] | DOWN MDEW [5] | mortality at 12 ppm ([6]; CRW rate 12.00 ppm) [%] | mortality at 24 ppm ([6]; CRW rate 24.00 ppm) [%] | mortality at 200 ppm ([7]; spray rate 200 ppm) [%] | mortality at 400 ppm ([7]; spray rate 400 ppm) [%] | mortality at 200 ppm ([8]; spray rate 200 ppm) [%] | mortality at 400 ppm ([8]; spray rate 400 ppm) [%] | mortality at 200 ppm ([9]; spray rate 200 ppm) [%] | mortality at 400 ppm ([9]; spray rate 400 ppm) [%] | also measured
CCCCOc1ccc(CCOc2ncnc3c(F)cccc23)cc1 [Example 156, 8-fluoro-4-[2-(4-butoxyphenyl)ethoxy]quinazoline] | +++ (+++ = 90-100% control at 100 ppm) | +++ (+++ = 90-100% control at 100 ppm) | +++ (+++ = 90-100% control at 100 ppm) | - (- = 0-19% control at 400 ppm) | +++ (+++ = 90-100% control at 100 ppm) | 0 | 0 | 60 | 0 | 100 | 80 | 100 | 100 | –
Brc1ccc(CCOc2ncnc3ccccc23)cc1 [Example 22, 4-[2-(4-bromophenyl)ethoxy]quinazoline] | +++ (+++ = 90-100% control at 100 ppm) | +++ (+++ = 90-100% control at 100 ppm) | +++ (+++ = 90-100% control at 100 ppm) | - (- = 0-19% control at 400 ppm) | +++ (+++ = 90-100% control at 100 ppm) | – | 0 | – | 0 | – | 20 | – | 80 | –
Cc1cc(C)c(CCOc2ncnc3ccccc23)c(C)c1 [Example 43, 4-[2-(2,4,6-trimethylphenyl)ethoxy]quinazoline] | ++ (++ = 90-100% control at 400 ppm) | ++ (++ = 90-100% control at 400 ppm) | ++ (++ = 90-100% control at 400 ppm) | - (- = 0-19% control at 400 ppm) | ++ (++ = 90-100% control at 400 ppm) | – | 0 | – | 0 | – | 0 | – | 0 | –
Clc1ccc2ncnc(NCCc3ccc(-c4ccccc4)cc3)c2c1 [Example 90, 6-chloro-N-[2-(1,1'-biphenyl)-4-ylethyl]-4-quinazolinamine] | + (+ = 20-89% control at 400 ppm) | + (+ = 20-89% control at 400 ppm) | + (+ = 20-89% control at 400 ppm) | - (- = 0-19% control at 400 ppm) | +++ (+++ = 90-100% control at 100 ppm) | 0 | 0 | 0 | 100 | 100 | 0 | 80 | 0 | –
CC(C)c1ccccc1CCOc1ncnc2ccccc12 [Example 135, 4-[2-[2-(1-methylethyl)phenyl]ethoxy]quinazoline] | +++ (+++ = 90-100% control at 100 ppm) | +++ (+++ = 90-100% control at 100 ppm) | +++ (+++ = 90-100% control at 100 ppm) | - (- = 0-19% control at 400 ppm) | +++ (+++ = 90-100% control at 100 ppm) | 0 | 0 | 0 | 0 | 0 | 0 | 0 | 0 | –
Fc1cccc2c(OCCc3ccc(-c4ccccc4)cc3)ncnc12 [Example 93, 8-fluoro-4-[2-(1,1'-biphenyl)-4-ylethoxy]quinazoline] | +++ (+++ = 90-100% control at 100 ppm) | +++ (+++ = 90-100% control at 100 ppm) | +++ (+++ = 90-100% control at 100 ppm) | - (- = 0-19% control at 400 ppm) | +++ (+++ = 90-100% control at 100 ppm) | – | – | – | – | – | – | – | – | CRW RESULTS % ([6]; CRW rate 12.00 ppm): 0%; CRW RESULTS % ([6]; CRW rate 24.00 ppm): 0%; SAW RESULTS % ([7]; spray rate 200 ppm): 100%; SAW RESULTS % ([7]; spray rate 400 ppm): 100%; SM RESULTS % ([8]; spray rate 200 ppm): 80%; SM RESULTS % ([8]; spray rate 400 ppm): 0%; MA RESULTS % ([9]; spray rate 200 ppm): 80%; MA RESULTS % ([9]; spray rate 400 ppm): 0%
c1ccc(Oc2cccc(CCOc3ncnc4ccccc34)c2)cc1 [Example 68, 4-[2-(3-phenoxyphenyl)ethoxy]quinazoline] | +++ (+++ = 90-100% control at 100 ppm) | +++ (+++ = 90-100% control at 100 ppm) | +++ (+++ = 90-100% control at 100 ppm) | - (- = 0-19% control at 400 ppm) | +++ (+++ = 90-100% control at 100 ppm) | – | 0 | – | 0 | – | 90 | – | 100 | –
COc1ccc(CCOc2ncnc3c(F)cccc23)cc1OC [Example 112, 8-fluoro-4-[2-(3,4-dimethoxyphenyl)ethoxy]quinazoline] | + (+ = 20-89% control at 400 ppm) | +++ (+++ = 90-100% control at 100 ppm) | +++ (+++ = 90-100% control at 100 ppm) | - (- = 0-19% control at 400 ppm) | +++ (+++ = 90-100% control at 100 ppm) | 0 | 0 | 0 | 0 | 0 | 0 | 80 | 0 | –
C=CC(CCc1ccccc1)Oc1ncnc2ccccc12 (stereo not shown) [Example 148, 4-[(1-benzyl-3-buten-2-yl)oxy]quinazoline] | ++ (++ = 90-100% control at 400 ppm) | ++ (++ = 90-100% control at 400 ppm) | + (+ = 20-89% control at 400 ppm) | - (- = 0-19% control at 400 ppm) | ++ (++ = 90-100% control at 400 ppm) | – | 0 | – | 0 | – | 0 | – | 0 | –
c1ccc(C(COc2ncnc3ccccc23)c2ccccc2)cc1 [Example 67, 4-(2,2-diphenylethoxy)quinazoline] | + (+ = 20-89% control at 400 ppm) | + (+ = 20-89% control at 400 ppm) | - (- = 0-19% control at 400 ppm) | - (- = 0-19% control at 400 ppm) | ++ (++ = 90-100% control at 400 ppm) | – | 0 | – | 0 | – | 60 | – | 30 | –
Cc1ccc(CCNc2ncnc3c(F)cccc23)cc1 [Example 77, 8-fluoro-N-[2-(4-methylphenyl)ethyl]-4-quinazolinamine] | - (- = 0-19% control at 400 ppm) | ++ (++ = 90-100% control at 400 ppm) | ++ (++ = 90-100% control at 400 ppm) | - (- = 0-19% control at 400 ppm) | - (- = 0-19% control at 400 ppm) | 0 | 0 | 0 | 0 | 0 | 0 | 0 | 0 | –
c1ccc2c(CCOc3ncnc4ccccc34)cccc2c1 [Example 91, 4-[2-(1-naphthyl)ethoxy]quinazoline] | + (+ = 20-89% control at 400 ppm) | ++ (++ = 90-100% control at 400 ppm) | + (+ = 20-89% control at 400 ppm) | - (- = 0-19% control at 400 ppm) | ++ (++ = 90-100% control at 400 ppm) | 0 | 0 | 0 | 0 | 0 | 0 | 0 | 0 | –
CCC(COc1ncnc2ccccc12)c1ccc(-c2ccccc2)cc1 (stereo not shown) [Example 142, 4-[2-(1,1'-biphenyl)-4-ylbutoxy]quinazoline] | + (+ = 20-89% control at 400 ppm) | ++ (++ = 90-100% control at 400 ppm) | + (+ = 20-89% control at 400 ppm) | - (- = 0-19% control at 400 ppm) | - (- = 0-19% control at 400 ppm) | – | 0 | – | 0 | – | 60 | – | 30 | –
